The values below come from US20190192699A1, “NUCLEAR IMAGING AND RADIOTHERAPEUTICS AGENTS TARGETING CARBONIC ANHYDRASE IX AND USES THEREOF” (THE JOHNS HOPKINS UNIVERSITY, priority 2016, published 2019).

Assay [1] has as its target T1, CAIX (Homo sapiens, UniProt Q16790). The assay can be described thus: Competitive fluorescence polarization assay for [113/115In]XYIMSR-01. The class given is binding. Set-up: purchased R&D Systems. From the text: (§1) General Procedures. Solvents and chemicals obtained from commercial sources were of analytical grade or better and used without further purification. Fmoc-protected azidolysine, HBTU, and N-α-fmoc-L-aspartic acid α-tert-butyl ester were purchased from Chem Impex International, Inc. (Wooddale, Ill.). Carrier-free [^111In]InCl3 was purchased from MDS Nordion (Ottawa, ON, Canada). DOTA-NHS-ester (1,4,7,10-tetraazacyclododecane-1,4,7,10-tetraacetic acid mono N-hydroxysuccinimide ester) was purchased from Macrocyclics, Inc. (Dallas, Tex.). Indium (III) nitrate, triethylsilane (Et3SiH), N,N-diisopropylethylamine (DIEA), triethylamine (TEA), piperidine, 4,4-bis(4-hydroxyphenyl)valeric acid, copper iodide (CuI), and tris[(1-benzyl-1H-1,2,3-triazol-4-yl)methyl]amine (TBTA) were purchased from Sigma-Aldrich (Saint Louis, Mo.). Pre-loaded O-bis-(aminoethyl)ethylene glycol on trityl resin was purchased from EMD Millipore (Billerica, Mass.). Flash chromatography was performed using MP SiliTech 32-63 D 60 Å silica gel purchased from Bodman (Aston, Pa.). Recombinant human CAIX was purchased from R&D Systems (Minneapolis, Minn.). 1H NMR spectra were recorded on a Bruker Ultrashield 500 MHz spectrometer. Chemical shifts (δ) were reported in ppm downfield by reference to proton resonances resulting from incomplete deuteration of the NMR solvent. ESI mass spectra were obtained on a Bruker Daltonics Esquire 3000 Plus spectrometer (Billerica, Mass.).
Competitive Fluorescence Polarization Assay for [^113/115In]XYIMSR-01. Fluorescence polarization (FP) experiments were performed in 21 μL of the assay buffer (12.5 mM Tris-HCl, pH 7.5, 75 mM NaCl) in black flat bottom 384-well microplates (Corning, Inc., New York, N.Y.) The FP reaction employed 100 nM of purified CAIX (R&D systems, Minneapolis, Minn.) and 80 nM FITC-labeled 8 (Wichert, et al., 2015) within the assay buffer. The FP values were measured as mP units using the Victor3 multi-label plate reader equipped with excitation (485 nm) and emission (535 nm) filters (Perkin Elmer, Waltham, Mass.). 100 nM CAIX was incubated with serially diluted (from 1 μM to 61 fM) concentrations of the three targeting molecules, 2, XYIMSR-01, and [^113/115In]XYIMSR-01 for 30 min at room temperature in 384-well plates. 80 nM 8 was added to each well and the reaction was incubated for 30 min at room temperature followed by FP measurement. Experiments were carried out in triplicate and the concentration resulting in 50% response (IC50) was calculated in GraphPad Prism 5 (GraphPad Software, La Jolla, Calif.) using the sigmoidal dose-response regression function.
In general terms: Polarisation of emitted light reports the rotation of a fluorescent probe.

The target of assay [2] is T1, CAIX. Kind of assay: Competitive fluorescence polarization assay for [Al19F]XYIMSR-04, [63/65Cu]XYIMSR-06 and [175Lu]XYIMSR-01. Set-up: purchased R&D Systems. The assay is classed as binding. The settings on record: 100 nM CAIX, 80 nM FITC-labeled ligand; read-out: IC50, competitive fluorescence polarization (similar method).
Excerpt: as §1
Competitive Fluorescence Polarization Assay for [Al^19F]XYIMSR-04, [^63/65Cu]XYIMSR-06, and [^175Lu]XYIMSR-01. Fluorescence polarization (FP) experiments were performed in 21 μL of the assay buffer (12.5 mM Tris-HCl, pH 7.5, 75 mM NaCl) in transparent flat bottom 384 well Small Volume™ LoBase Microplates (Greiner Bio-One, Frickenhausen Germany). The FP reaction employed 100 nM of purified CAIX (R&D systems, Minneapolis, Minn.) and 80 nM FITC-labeled ligand within the assay buffer. The FP values were measured as mP units using the Safire2™ plate reader (Tecan, Morrisville, N.C.) with excitation at 475 nm and emission at 532 nm emission. 100 nM CAIX was incubated with serially diluted (from 8 μM to 488.2 fM) concentrations of the […] targeting molecules, 2, [Al^19F]XYIMSR-04, [^63/65Cu]XYIMSR-06 and [^175Lu]XYIMSR-01 for 30 min at room temperature in 384 well plates. 80 nM FITC-labeled ligand was added to each well and the reaction was incubated for 30 min at room temperature followed by FP measurements. Experiments were carried out in triplicate and the concentration resulting in 50% response (IC50) was calculated in GraphPad Prism 5 (GraphPad Software, La Jolla, Calif.) using the sigmoidal dose-response regression function.

The target in assay [3] is T1, CAIX. Set-up: host or cells: ccRCC tumours in patients. The settings on record: Wichert et al., 2015; read-out: Kd for CAIX (known / reported); cited from earlier work.

On to `CC(CCC(=O)N[C@@H](CC(=O)N[C@@H](CC(=O)N[C@@H](CCCCn1cc(CCCC(=O)Nc2nnc(S(N)(=O)=O)s2)nn1)C(=O)NCCOCCOCCN)C(=O)O)C(=O)O)(c1ccc(O)cc1)c1ccc(O)cc1` [compound 3, N^4-((S)-1-((2-(2-(2-aminoethoxy)ethoxy)ethyl)amino)-1-oxo-6-(4-(4-oxo-4((5-sulfamoyl-1,3,4-thiadiazol-2-yl)amino)butyl)-1H-1,2,3-triazol-1-yl)hexan-2-yl)-N^2-((S)-3-(4,4-bis(4-hydroxyphenyl)pentanamido)-3-carboxypropanoyl)-L-asparagine, reference compound], for which the IC50 in assay [1] (100 nM CAIX, 80 nM FITC-labeled 8, read-out: IC50, inhibition of fluorescence polarization of FITC labeled 8) was determined as 75.9 nM; in assay [2], 63.6 ± 2.8 nM. Further, the “binding affinity to CAIX (in words)” value in assay [1] (competitive fluorescence polarization) is on record as “high binding affinity”. Also, in assay [3], the Kd is 2.6 nM.

One may read the IC50 as the point on the concentration scale where inhibition reaches its midpoint.
